Assay results taken from patent US11733243B2, “Use of acamprosate to modulate ERK1/2 activation in animal models for FXS and ASD and individuals diagnosed with FXS and ASD” (Indiana University Research and Technology Corporation, priority 2013, dated 2023).
“Also recorded” adds a separate entry of the source.

Key:
fmr1 knockout mice = conditions: mouse, in vivo; cited from earlier work
subjects with FXS = conditions: cited from earlier work
males with FXS = conditions: cited from earlier work
mGluR5 = biological target: T1, mGluR5 (Mus musculus, UniProt Q3UVX5); conditions: in vivo; cited from earlier work
T1 construct: host or cells: fmr1 knockout mouse, in vivo

alcohol intake = conditions: mouse, in vivo; cited from earlier work
[1] = tested on: alcohol withdrawal associated anxiety; conditions: in vivo; cited from earlier work
ERK/MAPK = assay: ICC of fixed lymphocytes for ERK/MAPK activity (anti-phospho-Thr202/Tyr204); type: cell-based, human; conditions: tamoxifen, 10 mM
Description: Lymphocyte samples were prepared from patient's blood and plated onto a PDL-coated 24-well plate. Cells were fixed by adding 4% paraformaldehyde in PB solution (at RT). Excess paraformaldehyde solution was aspirate out. The fixed cells were washed three times gently with cold DPBS (Bulbecco-modified phosphate buffered saline). Then 0.12% Triton X-100 (diluted in DPBS) was added onto the cells at RT and incubated for 20 minutes at RT. Excess Triton X solution was aspirated out and cells were washed three times (gently) with chilled DPBS. Cells were blocked with 10% horse serum (HS) (diluted in DPBS) for 20 minutes at RT. Unbound blocking agent was washed off. The primary antibody diluted in 1% HS in DPBS was added. Generally a dilution of 1:250 was used. The antibody, which is raised in rabbit recognizes Phospho-Thr202/Tyr204 of ERK/MAPK, which indicates translocation of activated ERK/MAPK into the […] compartment.
Incubation with the primary antibody was done for overnight at 4° C. Unbound primary antibody was washed off, and at this stage the plate can be stored at 4° C. Washed three times at RT with cold DPBS. Added Alexa Fluor conjugated goat anti rabbit (diluted 1:200 in DPBS) and incubated at RT for 1-2 hr. This reagent and this step is light sensitive to. For best results the reagent and this step of the procedure should be kept away from the light. […]

fmr1 KO mice = conditions: mouse, in vivo; cited from earlier work
adults with FXS = conditions: single dose, cited from earlier work
[2] = tested on: cerebellar granule cells from fmr1 knockout mice; conditions: cited from earlier work
[3] = tested on: persons with FXS and comorbid ASD; conditions: 6 persons; cited from earlier work
ERK1/2 = conditions: adults with FXS; cited from earlier work

T1 sequence (Q3UVX5 19-1203): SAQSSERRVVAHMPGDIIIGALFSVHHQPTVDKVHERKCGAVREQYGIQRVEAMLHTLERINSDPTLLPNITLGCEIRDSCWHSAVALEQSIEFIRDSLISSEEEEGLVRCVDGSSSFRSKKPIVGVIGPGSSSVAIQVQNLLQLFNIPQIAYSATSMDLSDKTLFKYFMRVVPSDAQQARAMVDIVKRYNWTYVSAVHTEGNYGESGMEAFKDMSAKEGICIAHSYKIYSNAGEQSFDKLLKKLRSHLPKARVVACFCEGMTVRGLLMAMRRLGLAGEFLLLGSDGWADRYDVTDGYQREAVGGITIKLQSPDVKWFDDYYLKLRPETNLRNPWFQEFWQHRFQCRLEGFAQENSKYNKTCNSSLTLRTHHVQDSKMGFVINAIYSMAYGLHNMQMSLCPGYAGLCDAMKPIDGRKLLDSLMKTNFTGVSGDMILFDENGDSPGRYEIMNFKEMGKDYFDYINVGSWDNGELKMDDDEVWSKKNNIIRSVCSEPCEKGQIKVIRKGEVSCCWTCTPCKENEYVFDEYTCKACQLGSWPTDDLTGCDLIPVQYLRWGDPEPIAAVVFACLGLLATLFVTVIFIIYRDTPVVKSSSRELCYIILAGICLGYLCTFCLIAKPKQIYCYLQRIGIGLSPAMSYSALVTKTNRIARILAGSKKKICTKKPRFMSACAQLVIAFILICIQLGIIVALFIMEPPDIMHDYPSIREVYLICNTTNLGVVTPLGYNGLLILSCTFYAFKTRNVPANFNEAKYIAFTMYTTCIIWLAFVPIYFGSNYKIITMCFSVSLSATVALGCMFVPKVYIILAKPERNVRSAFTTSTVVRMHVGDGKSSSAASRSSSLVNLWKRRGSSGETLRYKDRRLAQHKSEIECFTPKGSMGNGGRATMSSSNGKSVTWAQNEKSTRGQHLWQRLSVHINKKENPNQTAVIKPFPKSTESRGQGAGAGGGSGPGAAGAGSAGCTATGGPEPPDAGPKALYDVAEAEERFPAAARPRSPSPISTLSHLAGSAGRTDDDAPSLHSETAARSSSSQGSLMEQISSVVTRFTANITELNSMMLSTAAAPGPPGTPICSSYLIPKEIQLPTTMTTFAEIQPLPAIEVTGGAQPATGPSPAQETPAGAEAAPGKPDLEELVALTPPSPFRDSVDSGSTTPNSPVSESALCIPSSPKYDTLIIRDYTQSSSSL

NC[C@H](CC(=O)O)c1ccc(Cl)cc1 (single isomer, unassigned) [STX209]
effect on protein synthesis and dendritic spines (fmr1 knockout mice): correction of aberrant protein synthesis and dendritic spine abnormalities
ABC Irritability (ABC-I) subscale, primary outcome measure (subjects with FXS; 63 subjects aged 6 to 40 years): not associated with improvement on the primary outcome measure
ABC-SW and VABS Socialization, post-hoc 27 subject subset with baseline ABC-SW >8 (subjects with FXS; human, in vivo): significant STX209-associated improvement
Social Avoidance scale (ABC-SA), post-hoc analysis (subjects with FXS; human, in vivo): significant group-wide improvement
subjects reporting sedation (subjects with FXS; human, in vivo): 8%
tolerability (subjects with FXS; human, in vivo): well tolerated

COC(=O)N1CC[C@@H]2[C@H]1CCC[C@@]2(O)C#Cc1cccc(C)c1 [AFQ056]
group treatment effect (males with FXS; 30 males with FXS aged 18 to 35 years): not associated with significant group treatment effect
response in 7 subject subset with full fmr1 gene methylation (males with FXS; ABC subscales and total, CGI-I, Visual Analogue Scale, Repetitive Behavior Scale-Revised): significant response to AFQ056 compared to placebo

Cc1cccc(C#Cc2ccccc2)n1 [MPEP, 2-methyl-6-(phenylethynyl)-pyridine]
effect on phenotypic characteristics of the fmr1 mouse model (mGluR5): reverse phenotypic characteristics, including audiogenic seizures, altered pre-pulse inhibition (PPI), and open field hyperactivity

Cc1nc(C#Cc2cccnc2)cs1 [MTEP, 3-((2-Methyl-4-thiazolyl)ethynyl)pyridine]
alcohol intake (alcohol intake): reduced alcohol intake
alcohol withdrawal associated anxiety effects [1]: reduce alcohol withdrawal associated anxiety effects

CC/C(=C(\c1ccccc1)c1ccc(OCCN(C)C)cc1)c1ccccc1 [Tamoxifen]
ERK activation and translocation of ERK/MAPK (positive control) (ERK/MAPK): induces ERK activation; also recorded: cytoplasmic localization of ERK 1/2

CC(=O)[C@H]1CC[C@H]2[C@@H]3CC[C@H]4C[C@H](O)CC[C@]4(C)[C@H]3C(=O)C[C@]12C [alphaxalone]
effect on phenotype of fmr1 KO mice (fmr1 KO mice): reductions in anxiety and rescue of audiogenic seizures

CN1CC(=O)NC1=NC(=O)Nc1cccc(Cl)c1 [fenobam]
subjects experiencing mild sedation (adults with FXS; 12 adults with FXS): 25%
subjects who experienced clinical benefit (adults with FXS; 12 adults with FXS, reductions in hyperactivity and anxiety): 75%
pharmacokinetics (adults with FXS): variable pharmacokinetics
tolerability (adults with FXS): good tolerability

Oc1noc2c1CCNC2 [gaboxadol]
effect on phenotype of fmr1 KO mice (fmr1 KO mice): restored neuron excitability deficits in the amygdala, reduced hyperactivity, and reduced PPI deficits

CC12CC3CC(C)(C1)CC(N)(C3)C2 [memantine]
dendritic spine development and synapse formation [2]: correction of dendritic spine development and synapse formation
subjects who developed treatment limiting irritability [3]: Two
subjects with clinical response (CGI-I very much improved or much improved) [3]: 67%

Nc1nc2ccc(OC(F)(F)F)cc2s1 [riluzole]
ERK1/2 activation rates (ERK1/2): modifies ERK1/2 activation rates

NCCS(=O)(=O)O [taurine]
effect on phenotype of fmr1 KO mice (fmr1 KO mice): Improvements in memory acquisition and retention
